Biological target: VEGFR2 (KDR) (Homo sapiens, UniProt P35968)
Assay: ADP-Glo kinase assay with purified KDR (Promega V2681), […] ATP
Type: biochemical

Sequence of VEGFR2 (KDR) (P35968 20-1356): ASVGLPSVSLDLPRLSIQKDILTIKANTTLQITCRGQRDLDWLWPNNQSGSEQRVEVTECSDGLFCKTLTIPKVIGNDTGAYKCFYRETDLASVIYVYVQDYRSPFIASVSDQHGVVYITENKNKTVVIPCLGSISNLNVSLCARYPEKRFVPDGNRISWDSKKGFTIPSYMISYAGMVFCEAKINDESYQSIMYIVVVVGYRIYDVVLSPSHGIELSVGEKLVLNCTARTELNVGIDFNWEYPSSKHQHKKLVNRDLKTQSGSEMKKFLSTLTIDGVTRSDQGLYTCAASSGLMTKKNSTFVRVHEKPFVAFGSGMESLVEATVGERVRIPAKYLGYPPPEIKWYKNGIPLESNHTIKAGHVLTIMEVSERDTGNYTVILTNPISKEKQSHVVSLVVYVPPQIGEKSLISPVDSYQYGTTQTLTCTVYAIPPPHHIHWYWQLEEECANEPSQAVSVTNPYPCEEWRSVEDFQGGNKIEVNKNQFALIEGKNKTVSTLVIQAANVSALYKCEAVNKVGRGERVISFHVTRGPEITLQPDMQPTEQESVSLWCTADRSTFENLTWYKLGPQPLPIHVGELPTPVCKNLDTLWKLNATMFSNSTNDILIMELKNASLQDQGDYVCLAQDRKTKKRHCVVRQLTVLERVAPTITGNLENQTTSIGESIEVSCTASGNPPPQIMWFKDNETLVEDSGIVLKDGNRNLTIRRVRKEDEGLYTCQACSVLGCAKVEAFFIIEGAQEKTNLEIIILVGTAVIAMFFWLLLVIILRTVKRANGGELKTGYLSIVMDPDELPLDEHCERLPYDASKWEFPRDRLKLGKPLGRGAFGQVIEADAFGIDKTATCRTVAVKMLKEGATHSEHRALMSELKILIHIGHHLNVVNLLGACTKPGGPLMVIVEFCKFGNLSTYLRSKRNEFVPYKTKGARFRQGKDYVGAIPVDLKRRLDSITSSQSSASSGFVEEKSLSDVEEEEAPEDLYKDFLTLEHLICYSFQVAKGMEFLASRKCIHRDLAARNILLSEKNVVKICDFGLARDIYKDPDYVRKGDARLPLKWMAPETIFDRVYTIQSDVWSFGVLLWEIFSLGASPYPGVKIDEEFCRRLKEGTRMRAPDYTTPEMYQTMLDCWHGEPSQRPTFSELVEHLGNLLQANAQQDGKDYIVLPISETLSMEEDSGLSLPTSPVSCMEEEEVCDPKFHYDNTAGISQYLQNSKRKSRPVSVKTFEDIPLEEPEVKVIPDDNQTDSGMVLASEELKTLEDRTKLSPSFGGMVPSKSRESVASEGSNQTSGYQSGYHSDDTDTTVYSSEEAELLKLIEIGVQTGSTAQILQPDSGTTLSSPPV

C[C@H]1[C@H](C)CC[C@]2(C(=O)O)CC[C@]3(C)C(=CC[C@@H]4[C@@]5(C)C[C@@H](O)[C@H](O)C(C)(C)[C@@H]5CC[C@]43C)[C@H]12 [CA, corosolic acid]
IC50: 950 nM

Reference: PMC4433267, “Corosolic Acid Inhibits Hepatocellular Carcinoma Cell Migration by Targeting the VEGFR2/Src/FAK Pathway” (PLoS ONE, 2015)
